{"source": "paper PMC9376946", "about": "“Peptide-RNA Coacervates as a Cradle for the Evolution of Folded Domains” (Journal of the American Chemical Society, 2022)", "key": {"PA dimer (PA2)": {"tested_on": "PA dimer (PA2)", "assay": "DEER of singly labeled peptides in solution (dimerization)", "assay_type": "binding", "quoted_text": "Lyophilized, spin-labeled peptides were dissolved in Milli-Q water and centrifuged at 4000 rpm for 10 min to remove insoluble aggregates. The soluble fractions were used to prepare stock solutions of 250–500 μM peptide. Labeled peptide concentrations were determined by comparing the area under the curve of the EPR signal against that of standard solutions of 10–285 μM TEMPO. For the EPR measurements in D2O, 200 μL of the stock solution was lyophilized and re-dissolved in D2O. The concentration of the unlabeled peptide stock solutions was determined using the bicinchoninic acid assay (Thermo Fisher Scientific) and ranged from 0.8 to 1.2 mM peptide. […]\nPulse EPR measurements were carried out at the W band (94.9 GHz) on a home-built spectrometer at 25 K.[22]−[24] Echo intensities were measured with a Hahn echo sequence (π/2νobs – τ – πνobs – τ – echo) using π/2 and π pulses of 20–25 ns and 40–50 ns, respectively, and τ = 500 ns. Echo decays were measured under the same conditions with an initial τ value of 500 ns. DEER measurements were recorded using the four-pulse DEER sequence (π/2νobs – τ1 – πνobs – (τ1 + t) – πνpump – (τ2-t) – πνobs – τ2 – echo)[25],[26] with a chirp pump pulse[23] using eight-step phase cycling and monitoring the echo intensity as a function of increasing t. […]"}, "polyU": {"tested_on": "polyU", "assay": "Coacervate (droplet) formation with polyU, optical microscopy", "assay_type": "physicochemical", "settings": "for coacervate formation with polyU: 150 μM, 50 mM MES pH 5.6", "protocol": "Optical microscopy images of phase-separated samples were taken at the de Picciotto Cancer Cell Observatory Life Sciences Core Facilities (Weizmann Institute of Science) using a 100× objective (oil immersion) on a Leica DMI8 microscope with differential interface contrast. We used 1–2 μL of the sample to make a small drop in an imaging chamber produced by attaching a coverslip to a clean glass slide using a thin strip of double-sided tape (AJ Sign World). Images were processed using the software package Fiji (NIH).\nLyophilized, spin-labeled peptides were dissolved in Milli-Q water and centrifuged at 4000 rpm for 10 min to remove insoluble aggregates. The soluble fractions were used to prepare stock solutions of 250–500 μM peptide. Labeled peptide concentrations were determined by comparing the area under the curve of the EPR signal against that of standard solutions of 10–285 μM TEMPO. For the EPR measurements in D2O, 200 μL of the stock solution was lyophilized and re-dissolved in D2O. The concentration of the unlabeled peptide stock solutions was determined using the bicinchoninic acid assay (Thermo Fisher Scientific) and ranged from 0.8 to 1.2 mM peptide. A stock solution of 500 mM MES, pH 5.6 was used to adjust all samples to a final concentration of 50 mM MES, pH 5.6. Aliquots of 10 mg/mL polyuridylic acid (polyU; Sigma Aldrich) were prepared in Milli-Q water and diluted as necessary. For CW-EPR measurements, a quartz capillary of 0.6 mm i.d. and 0.84 mm o.d. was filled with 7–8 μL of the sample and sealed with Critoseal (Fisherbrand, Fisher Scientific) at one end. A single capillary was placed in an X-band EPR tube of 2 mm i.d. and 2.4 mm o.d. for measurements, except for spin concentration below 50 μM, where two capillaries were used.\nEach sample was freshly prepared and the time to collect […] CW-EPR data was 30–40 min."}}, "data": [{"sequence": "RIRRASVEELTCVPGIGPRLARRILERLA [PA-12, Precursor-Arg peptide in which position 12 has been modified with a cysteine and attached to an M-TEMPO spin label]", "values": [{"measurement": "DEER modulation depth (Δ)", "setting": "PA dimer (PA2); 30 μM, without polyU", "result": 2, "unit": "%"}, {"measurement": "inter-monomer distances upon spin dilution", "setting": "PA dimer (PA2); about 10% spin-labeled peptide, 200 μM total PA", "result": "inter-monomer distances practically disappear"}, {"measurement": "droplet formation with polyU", "setting": "polyU; 50 μM PA-12 and above, 1 mg/mL polyU", "result": "a significant number of droplets"}, {"measurement": "coacervate formation with polyU", "setting": "polyU; 0.35 or 0.5 mg/mL polyU", "result": "only a few tiny droplets were observed"}, {"measurement": "coacervate formation with polyU", "setting": "polyU; 1 or 2 mg/mL polyU", "result": "readily form coacervates"}]}]}
